System: human integrin α4
Experiment: Inhibition of human integrin α4 protein levels by antisense oligonucleotides (LIPOFECTIN, flow cytometry with CD49d-FITC) in A375 melanoma cells
Format: cell-based
Settings: for % Control (integrin α4 protein) / % Inhib (integrin α4 protein): Table 1, A375 cells, 200 nM oligonucleotide, 6 ug/ml LIPOFECTIN; for inhibition (Example 11): Example 11 assay, dose not stated; for % CONTROL 48 hr / % INHIB 48 hr / % CONTROL 72 hr / % INHIB 72 HR: Table 2, A375; for % Control / % Inhib.: Table 6
From the text: Integrin α4 protein levels can be quantitated in a variety of ways well known in the art, such as immunoprecipitation, Western blot analysis (immunoblotting), ELISA or fluorescence-activated cell sorting (FACS). Antibodies directed to integrin α4 can be identified and obtained from a variety of sources, such as the MSRS catalog of antibodies (Aerie Corporation, Birmingham, Mich.), or can be prepared via conventional antibody generation methods.
Target sites are indicated by nucleotide numbers, as given in the sequence source reference (GenBank accession no. L12002), to which the oligonucleotide binds. All compounds in Table 1 are 18 nucleotides in length, with a phosphorothioate backbone and a centered 10-base deoxynucleotide gap flanked by 2'-methoxyethoxy (2'MOE) wings. Human A375 melanoma cells (American Type Culture Collection, Manassas, Va.) were plated at 2000 cells/cm^2 two days before oligonucleotide treatment. Cells were treated with oligonucleotides at a dose of 200 nM oligonucleotide and 6 ug/ml LIPOFECTIN for four hours. Cells were incubated overnight and harvested with 2 mM EDTA in PBS. Cells were washed in 2% bovine serum albumin, 0.2% sodium azide in D-PBS at 4° C. Cells were centrifuged at 200×g, and the supernatant was decanted. […] Antibodies were incubated with the cells for 30 minutes at 4° C. in the dark, under gentle agitation. Cells were washed again as above and then resuspended in 0.3 ml of FacsFlow buffer with 0.5% formaldehyde. Cells were analyzed on Becton Dickinson FACScan. Results are expressed as percentage of control expression based on mean fluorescence intensity.
Cells were harvested with trypsin at 48 and 72 hours after oligonucleotide treatment and stained with 2 ug/ml CD49d-FITC as in the previous example.
Where backbones are mixed, linkages are shown as "s" for phosphorothioate (P=S or PS) and "o" for phosphodiester (P=O or PO). Where target region is indicated as `M62841,` oligonucleotides are targeted to the promotor region whose sequence is described in GenBank Accession No. M62841. Remaining oligonucleotides are targeted to the sequence described in Genbank Accession No. L12002 and their target sites on the L12002 sequence are indicated.
Target sites refer to nucleotide numbers on the target sequence (GenBank Accession No. L12002) to which the oligonucleotides hybridize.
Oligonucleotides were synthesized as "gapmers" consisting of a 9-nucleotide region of deoxynucleotides flanked by three 2'-O-methoxyethyl(2'-MOE) nucleotides on the 5' end and eight 2'-MOE nucleotides on the 3' end. 2'-MOE nucleotides are shown in bold in the table. Oligonucleotides were synthesized with phosphorothioate backbones throughout, and all cytosines are 5-methylcytosines.

Substance: 24439 (CTCCGTCTCTGCCTACGC; chemistry not given here) [compound 24439]
- % Control (integrin α4 protein): 120%

Substance: 24440 (CGGGTGCTCGCGCTGCTT; chemistry not given here) [compound 24440]
- % Control (integrin α4 protein): 101%

Substance: 24441 (CCTGGGATGCCGCGCACT; chemistry not given here) [compound 24441]
- % Control (integrin α4 protein): 112%

Substance: 24442 (ATGAGGCGCAGCGTGTCC; chemistry not given here) [compound 24442]
- % Control (integrin α4 protein): 82%
- % Inhib (integrin α4 protein): 18%

Substance: 24443 (CAAAGTTGCACGGGATGC; chemistry not given here) [compound 24443]
- % Control (integrin α4 protein): 63%
- % Inhib (integrin α4 protein): 37%

Substance: 24444 (GGAACATTCAACACTAAG; chemistry not given here) [compound 24444]
- % Control (integrin α4 protein): 68%
- % Inhib (integrin α4 protein): 32%

Substance: 24445 (CCCGGGTTCGCGCCTCGC; chemistry not given here) [compound 24445]
- % Control (integrin α4 protein): 73%
- % Inhib (integrin α4 protein): 27%

Substance: 24446 (GCGCGCTCTCAGTGTCCA; chemistry not given here) [compound 24446]
- % Control (integrin α4 protein): 58%
- % Inhib (integrin α4 protein): 42%

Substance: 24447 (GTGGCTGTGCAGCACGAC; chemistry not given here) [compound 24447]
- % Control (integrin α4 protein): 76%
- % Inhib (integrin α4 protein): 24%

Substance: 24448 (ACTGAAGCGTTGGCGAGC; chemistry not given here) [compound 24448]
- % Control (integrin α4 protein): 55%
- % Inhib (integrin α4 protein): 45%

Substance: 24449 (GCACGTCTGGCCGGGATT; chemistry not given here) [compound 24449]
- % Control (integrin α4 protein): 61%
- % Inhib (integrin α4 protein): 39%

Substance: 24451 (CCACTGATTGTCTCTCTC; chemistry not given here) [compound 24451]
- inhibition (Example 11): ≥ 40%
- % Control (integrin α4 protein): 51%
- % CONTROL 48 hr (50 nM): 63%
- % INHIB 48 hr (50 nM): 37%
- % CONTROL 48 hr (100 nM): 44%
- % INHIB 48 hr (100 nM): 56%
- % CONTROL 48 hr (200 nM): 34%
- % INHIB 48 hr (200 nM): 66%
- % CONTROL 48 hr (400 nM): 44%
- % INHIB 48 hr (400 nM): 56%
- % Control (10 nM): 96%
- % Control (30 nM): 77%
- % Inhib. (30 nM): 23%
- % Control (100 nM): 66%
- % Inhib. (100 nM): 34%
- % Control (300 nM): 35%
- % Inhib. (300 nM (highest dose)): 65%

Substance: 24452 (GGATCCATTTTCTCCTGG; chemistry not given here) [compound 24452]
- % Control (integrin α4 protein): 60%
- % Inhib (integrin α4 protein): 40%

Substance: 24453 (GCTTATTTTCATTCTTTA; chemistry not given here) [compound 24453]
- inhibition (Example 11): ≥ 40%
- % Control (integrin α4 protein): 47%
- % CONTROL 48 hr (50 nM): 79%
- % INHIB 48 hr (50 nM): 21%
- % CONTROL 72 hr (50 nM): 78%
- % INHIB 72 HR (50 nM): 22%
- % CONTROL 48 hr (100 nM): 95%
- % CONTROL 72 hr (100 nM): 93%
- % CONTROL 48 hr (200 nM): 38%
- % INHIB 48 hr (200 nM): 62%
- % CONTROL 72 hr (200 nM): 64%
- % INHIB 72 HR (200 nM): 36%
- % CONTROL 48 hr (400 nM): 41%
- % INHIB 48 hr (400 nM): 59%
- % CONTROL 72 hr (400 nM): 58%
- % INHIB 72 HR (400 nM): 42%
- % Control (10 nM): 88%
- % Inhib. (10 nM): 12%
- % Control (30 nM): 90%
- % Inhib. (30 nM): 10%
- % Control (100 nM): 80%
- % Inhib. (100 nM): 20%
- % Control (300 nM): 43%
- % Inhib. (300 nM (highest dose)): 57%

Substance: 24454 (TTCTTTTACTCAGTTCTG; chemistry not given here) [compound 24454]
- % Control (integrin α4 protein): 53%
- % Inhib (integrin α4 protein): 47%

Substance: 24455 (TCACATAATCTTGATAAC; chemistry not given here) [compound 24455]
- % Control (integrin α4 protein): 81%
- % Inhib (integrin α4 protein): 19%

Substance: 24456 (CCCATCACAATTAAATCC; chemistry not given here) [compound 24456]
- % Control (integrin α4 protein): 76%
- % Inhib (integrin α4 protein): 24%

Substance: 24457 (TTATTTGTAGTTATATTG; chemistry not given here) [compound 24457]
- % Control (integrin α4 protein): 106%

Substance: 24458 (CCTAAATAACTTCCAAAT; chemistry not given here) [compound 24458]
- % Control (integrin α4 protein): 88%
- % Inhib (integrin α4 protein): 12%

Substance: 24459 (GAAAATGACCAGCTCCGA; chemistry not given here) [compound 24459]
- % Control (integrin α4 protein): 61%
- % Inhib (integrin α4 protein): 39%

Substance: 24460 (TTTCATGTAAGATATTTA; chemistry not given here) [compound 24460]
- % Control (integrin α4 protein): 94%

Substance: 24461 (CCACAGCACAGACAGAAG; chemistry not given here) [compound 24461]
- % Control (integrin α4 protein): 69%
- % Inhib (integrin α4 protein): 31%

Substance: 24462 (TGGTGCTCTGCATGGGTG; chemistry not given here) [compound 24462]
- % Control (integrin α4 protein): 65%
- % Inhib (integrin α4 protein): 35%

Substance: 24463 (TACACAAACACTCTTCCT; chemistry not given here) [compound 24463]
- % Control (integrin α4 protein): 101%

Substance: 24464 (TTTGTTTCCATTGCATTC; chemistry not given here) [compound 24464]
- % Control (integrin α4 protein): 62%
- % Inhib (integrin α4 protein): 38%

Substance: 24465 (TGCAGCATATTTGTCACT; chemistry not given here) [compound 24465]
- % Control (integrin α4 protein): 63%
- % Inhib (integrin α4 protein): 37%

Substance: 24466 (TTGTCAATGTCGCCAAGA; chemistry not given here) [compound 24466]
- % Control (integrin α4 protein): 64%
- % Inhib (integrin α4 protein): 36%

Substance: 24467 (TCATCTTCTTGTGGAGCT; chemistry not given here) [compound 24467]
- % Control (integrin α4 protein): 101%

Substance: 24468 (CCATCTGCACGGCCATTG; chemistry not given here) [compound 24468]
- % Control (integrin α4 protein): 72%
- % Inhib (integrin α4 protein): 28%

Substance: 24469 (GTCCAAACATACTTAACG; chemistry not given here) [compound 24469]
- % Control (integrin α4 protein): 68%
- % Inhib (integrin α4 protein): 32%

Substance: 24470 (TATCTGCATCAATTTGTC; chemistry not given here) [compound 24470]
- % Control (integrin α4 protein): 83%
- % Inhib (integrin α4 protein): 17%

Substance: 24471 (ACCGAAAAGCACCAACTG; chemistry not given here) [compound 24471]
- % Control (integrin α4 protein): 80%
- % Inhib (integrin α4 protein): 20%

Substance: 24472 (CTTGTCCTTAGCAAGACA; chemistry not given here) [compound 24472]
- % Control (integrin α4 protein): 65%
- % Inhib (integrin α4 protein): 35%

Substance: 24473 (TCAGGGTGGCTTAAAGAA; chemistry not given here) [compound 24473]
- inhibition (Example 11): ≥ 40%
- % Control (integrin α4 protein): 53%
- % CONTROL 48 hr (50 nM): 77%
- % INHIB 48 hr (50 nM): 23%
- % CONTROL 72 hr (50 nM): 85%
- % INHIB 72 HR (50 nM): 35%
- % CONTROL 48 hr (100 nM): 49%
- % INHIB 48 hr (100 nM): 51%
- % CONTROL 72 hr (100 nM): 77%
- % INHIB 72 HR (100 nM): 23%
- % CONTROL 48 hr (200 nM): 39%
- % INHIB 48 hr (200 nM): 61%
- % CONTROL 72 hr (200 nM): 61%
- % INHIB 72 HR (200 nM): 39%
- % CONTROL 48 hr (400 nM): 42%
- % INHIB 48 hr (400 nM): 58%
- % CONTROL 72 hr (400 nM): 56%
- % INHIB 72 HR (400 nM): 44%
- % Control (10 nM): 103%
- % Control (30 nM): 92%
- % Control (100 nM): 81%
- % Inhib. (100 nM): 19%
- % Control (300 nM): 47%
- % Inhib. (300 nM (highest dose)): 53%

Substance: 24474 (ATCCATTTTCAACACAGT; chemistry not given here) [compound 24474]
- % Control (integrin α4 protein): 71%
- % Inhib (integrin α4 protein): 29%

Reference: US6258790A, “Antisense modulation of integrin α4 expression” (Isis Pharmaceuticals, Inc., priority 1999, dated 2001)
